We go through one compound from US11365194B2, “Analgesic drug using PAC1 receptor antagonistic drug” (KAGOSHIMA UNIVERSITY, priority 2017, dated 2022).

Assay [1] addresses T1, mouse PAC receptor-expressing CHO cell (PAC1/CHO cell) (Mus musculus, UniProt P70205).
T1 construct: expressed in transfected cells; host or cells: CHO cells
T1 sequence (P70205 21-496): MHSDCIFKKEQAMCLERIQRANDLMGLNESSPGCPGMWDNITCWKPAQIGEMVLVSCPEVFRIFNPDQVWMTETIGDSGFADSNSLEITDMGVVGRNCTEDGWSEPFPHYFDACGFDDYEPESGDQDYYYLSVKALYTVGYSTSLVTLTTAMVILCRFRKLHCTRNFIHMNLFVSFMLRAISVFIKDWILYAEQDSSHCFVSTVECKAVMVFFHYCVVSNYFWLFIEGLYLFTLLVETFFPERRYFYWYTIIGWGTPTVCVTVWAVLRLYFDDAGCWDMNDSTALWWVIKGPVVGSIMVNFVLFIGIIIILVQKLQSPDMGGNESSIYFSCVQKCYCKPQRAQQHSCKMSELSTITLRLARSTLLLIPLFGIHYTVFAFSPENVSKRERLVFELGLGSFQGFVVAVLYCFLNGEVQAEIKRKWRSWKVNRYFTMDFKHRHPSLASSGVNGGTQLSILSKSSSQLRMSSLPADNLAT
Briefly: CREB phosphorylation by PACAP stimulus, Western blot, PAC1/CHO cell. The format is cell-based. As for the experimental part:
The effect of each compound on the phosphorylation of CREB (cAMP-responsive element-binding protein) produced by a PACAP stimulus was examined by Western blot analysis using an anti-phosphorylated CREB (pCREB) antibody with a mouse PAC receptor-expressing CHO cell (PAC1/CHO cell) and a mouse VPAC1 receptor-expressing CHO cell (VPAC1/CHO cell).
Specifically, treatment with a compound (PA-8, PA-9, compounds 2j, 20 and 3d) at 10 μM to 10 nM or a solvent therefor (VEH: 0.1% DMSO-containing phosphate buffer solution) was performed for 30 minutes, 1 nM PACAP was then added, and protein was recovered within 30 minutes after a PACAP stimulus.
In general terms: A western blot detects proteins with antibodies after separation by electrophoresis.

The subject of assay [2] is cold allodynia induced by oxaliplatin. Briefly: Cold allodynia induced by oxaliplatin, drug on fourth day after oxaliplatin (acetone test). It counts as in vivo, mouse. The settings on record: 10 mg/kg, single oral administration, fourth day after oxaliplatin. Here is the method:
Oxaliplatin was dissolved in 5% glucose-containing saline and intraperitoneally administered at a dose of 2 mg/kg. A drug was administered on the fourth day after oxaliplatin administration. Male ddY mice (6 to 12 weeks old) were used. The axis of ordinates is the duration of the behavior of licking and paw waving after the application of an acetone drop (10 L) to the footpad of a hind paw.

Assay [3] has the same test system. The assay is described as follows: Onset of cold allodynia induced by oxaliplatin, drug given around oxaliplatin administration. It counts as in vivo, mouse. As to conditions: 10 mg/kg oral, 30 minutes before oxaliplatin or 3 administrations. Here is the method:
Oxaliplatin was dissolved in 5% glucose-containing saline and intraperitoneally administered at a dose of 2 mg/kg. Drug administration (oral administration) was performed 30 minutes before oxaliplatin administration (FIG. 7A); or 3 times: 30 minutes before oxaliplatin administration, 2.5 hours after the administration, and 5.5 hours after the administration (FIG. 7B). Male ddY mice (6 to 12 weeks old) were used. The axis of ordinates is the duration of the behavior of licking and paw waving after the application of an acetone drop (10 μL) to the footpad of a hind paw.

The conditions of assay [4]: Non Patent Literature 4; cited from earlier work.

On to `C=CCOc1ccc(C2CC(=O)Nc3nc(N)[nH]c(=O)c32)cc1OC` (centres unmarked) [PA-8, reference compound], for which the “suppression of CREB phosphorylation by PACAP (1 nM)” value in assay [1] (PAC1/CHO cell, compound 10 μM to 10 nM, 30 minutes before 1 nM PACAP) is given as “suppressed CREB phosphorylation by PACAP (1 nM)”. Moreover, in assay [1] (concluded from PAC1/CHO and VPAC1/CHO data), the “receptor selectivity (PAC1 versus VPAC1)” value is recorded as “PAC1 receptor selective antagonistic drug”. Moreover, in assay [2], the “suppression of cold allodynia by oxaliplatin” value was “suppressed cold allodynia by oxaliplatin significantly over 4 to 5 hours”. Further, the “suppression of the onset of cold allodynia by oxaliplatin” value in assay [3] is on record as “suppressed the onset of cold allodynia by oxaliplatin significantly”. For the same compound, the analgesic effect entry in assay [4] is listed as “have analgesic effect”.
